Test results: patent publication US11186576B2, “Pyrazolo[1,5-A][1,3,5]triazine and pyrazolo[1,5-A]pyrimidine derivatives as CDK inhibitors” (Aurigene Discovery Technologies Limited, priority 2015, dated 2021)

What was measured:
CDK7/CycH/MNAT1 = CDK7/CycH/MNAT1 (Homo sapiens (Human), UniProt P50613); experiment: Biochemical assay for CDK7 (TR-FRET kinase assay); conditions: 60 min pre-incubation, 1 mM ATP; for inhibition at 10 µM / % inhibition @ 10 μM: 10 μM compound; for inhibition at 10 µM: read-out: % inhibition @ 10 μM; for IC50: read-out: IC50
Outline: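 CDK7/CycH/MNAT1 (5 nM) was preincubated with compound for 60 min at room temperature, then reacted for 60 min with 100 nM ULight-MBP and 1 mM ATP in 1% DMSO. Irreversibility was probed with 20, 60 and 180 min preincubations.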

[1] = system: RNA polymerase II CTD phosphorylation (MDA-MB-231/NCI-H358 cells); experiment: Inhibition of RNA polymerase II CTD phosphorylation in cell western assay; assay type: cell-based; conditions: 4 hours incubation, phospho RNA Pol II Ser-5 or Ser-2
Description: 25000 cells (MDA-MB-231/NCI-H358) were seeded in 96 well black clear bottom plate incubated for overnight before addition of selected compound. 3 fold dilutions of selected compound diluted in DMSO starting from 10 μM, added to cells and incubated for 4 hours at 37° C., 5% CO2 incubator. Cells were washed once with 100 μl of phosphate buffered saline (sigma #P3813), then fixed with 100 μl/well of 4% Para formaldehyde for 60 min at room temperature, in dark. The cells were washed 3 times with 100 μl of wash buffer (PBS with 0.1% Triton-X-100), later blocked for 2 hours at room temperature in blocking buffer (5% BSA in PBST). Cells were stained overnight at 4° C. with Phospho RNA Pol II (S5) (Millipore #04-1572, Abcam #5131) or Phospho RNA Pol II (Ser-2), antibody (Bethyl labs #A300-654-A) in blocking buffer. Post incubation cells were washed with Delifia wash buffer (Perkin Elmer #4010-0010). Cells were treated with LANCE secondary antibodies (LANCE® Eu-W1024 perkin elmer #AD-0076 for phospho Ser-5 CTD RNA pol-II and Delfia Eu-N1 anti rabbit IgG Perkin elmer #AD0106 for phospho Ser-2 CTD RNA pol-II) for 2 hours in assay buffer (Perkin Elmer #1244-111), Cells were washed 3 times with Delfia wash buffer post incubation, Enhancement solution (Perkin Elmer #1244-105) added and incubated for 20 mins. Europium readings were taken in Victor-3 instrument. Cell normalization was done using Hoechst dye (0.5 μg/ml).
Selected compounds were screened in the above mentioned assay procedure. The EC50 values are summarised in the below table; wherein group “A” refers to an EC50 value of less than or equal to 1 μM, group “B” refers to EC50 value in range of 1 to 10 μM and group “C” refers to EC50 value of greater than 10 μM.

Chain of CDK7/CycH/MNAT1 (P50613 whole entry): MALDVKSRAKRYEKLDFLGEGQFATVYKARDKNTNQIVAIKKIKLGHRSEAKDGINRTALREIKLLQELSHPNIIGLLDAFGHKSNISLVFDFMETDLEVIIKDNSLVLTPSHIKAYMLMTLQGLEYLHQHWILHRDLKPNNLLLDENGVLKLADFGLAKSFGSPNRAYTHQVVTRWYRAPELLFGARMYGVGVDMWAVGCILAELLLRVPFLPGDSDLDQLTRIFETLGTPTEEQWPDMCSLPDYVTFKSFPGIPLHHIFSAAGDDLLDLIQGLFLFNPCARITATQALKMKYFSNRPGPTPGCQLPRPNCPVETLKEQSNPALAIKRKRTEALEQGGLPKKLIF
Chain of CDK7/CycH/MNAT1 (P51946 whole entry partner): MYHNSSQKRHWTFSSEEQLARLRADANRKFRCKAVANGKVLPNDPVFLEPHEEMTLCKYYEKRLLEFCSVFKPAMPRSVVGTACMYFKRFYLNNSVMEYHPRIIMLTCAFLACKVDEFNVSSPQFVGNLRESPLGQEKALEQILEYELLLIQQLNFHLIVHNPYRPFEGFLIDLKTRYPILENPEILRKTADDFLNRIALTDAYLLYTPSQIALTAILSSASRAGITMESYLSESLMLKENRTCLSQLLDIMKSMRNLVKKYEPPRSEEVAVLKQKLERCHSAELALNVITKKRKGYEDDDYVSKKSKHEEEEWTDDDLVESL
Chain of CDK7/CycH/MNAT1 (P51948 whole entry partner): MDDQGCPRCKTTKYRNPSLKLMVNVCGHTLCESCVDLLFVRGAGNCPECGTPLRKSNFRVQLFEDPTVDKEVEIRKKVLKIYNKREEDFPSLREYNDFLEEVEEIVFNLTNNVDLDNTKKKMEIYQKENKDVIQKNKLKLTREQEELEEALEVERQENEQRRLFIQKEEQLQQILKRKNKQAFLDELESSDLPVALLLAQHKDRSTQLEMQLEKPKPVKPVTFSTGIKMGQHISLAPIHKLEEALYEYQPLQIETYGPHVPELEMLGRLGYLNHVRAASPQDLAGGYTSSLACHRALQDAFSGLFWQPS

Row | inhibition at 10 µM (CDK7/CycH/MNAT1) | IC50 (CDK7/CycH/MNAT1) | EC50 [1] | % inhibition @ 10 μM (CDK7/CycH/MNAT1) | SMILES
1 | 96% | < 300 nM | ≤ 1000 nM |  | C=CC(=O)N1CCCCC1C(=O)Nc1cccc(CNc2nc(NC3CCOCC3)nc3c(C(C)C)cnn23)c1 (stereo not drawn) [Compound 21, 1-acryloyl-N-(3-(((8-isopropyl-2-((tetrahydro-2H-pyran-4-yl)amino)pyrazolo[1,5-a][1,3,5]triazin-4-yl)amino)methyl)phenyl)piperidine-2-carboxamide]
2 | 96% | < 300 nM | ≤ 1000 nM |  | C=CC(=O)N1CCCC1C(=O)Nc1cccc(CNc2nc(NC3CCOCC3)nc3c(C(C)C)cnn23)c1 (stereo not drawn) [Compound 3, 1-acryloyl-N-(3-(((8-isopropyl-2-((tetrahydro-2H-pyran-4-yl)amino)pyrazolo[1,5-a][1,3,5]triazin-4-yl)amino)methyl)phenyl)pyrrolidine-2-carboxamide]
3 | 91% | > 1000 nM | 1000 to 10000 nM |  | C=CC(=O)N1CCC(C(=O)Nc2cccc(CNc3nc(OC4CCNCC4)nc4c(C(C)C)cnn34)c2)CC1 [Compound 106, 1-acryloyl-N-(3-(((8-isopropyl-2-(piperidin-4-yloxy)pyrazolo[1,5-a][1,3,5]triazin-4-yl)amino)methyl)phenyl)piperidine-4-carboxamide]
4 | 94% | < 300 nM | > 10000 nM |  | C=CC(=O)N[C@H]1CC[C@H](C(=O)Nc2cccc(CNc3nc(OC4CCN(C)CC4)nc4c(C(C)C)cnn34)c2)CC1 [Compound 91, (1,4-trans)-4-acrylamido-N-(3-(((8-isoproprayl-2-((1-methylpiperidin-4-yl)oxy)pyrazolo[1,5-a][1,3,5]triazin-4-yl)amino)methyl)phenyl)cyclohexane-1-carboxamide]
5 | 91% | < 300 nM | 1000 to 10000 nM |  | C=CC(=O)N1CCC(C(=O)Nc2ccc(F)c(CNc3nc(NC4CCOCC4)nc4c(C(C)C)cnn34)c2)C1 (stereo not drawn) [Compound 32, 1-acryloyl-N-(4-fluoro-3-(((8-isopropyl-2-((tetrahydro-2H-pyran-4-yl)amino)pyrazolo[1,5-a][1,3,5]triazin-4-yl)amino)methyl)phenyl)pyrrolidine-3-carboxamide]
6 | 99% | < 300 nM | > 10000 nM |  | C=CC(=O)N1CCCC(C(=O)Nc2cccc(C(C)Nc3nc(OC4CCN(C)CC4)nc4c(C(C)C)cnn34)c2)C1 (stereo not drawn) [Compound 119, 1-acryloyl-N-(3-(1-((8-isopropyl-2-((1-methylpiperidin-4-yl)oxy)pyrazolo[1,5-a][1,3,5]triazin-4-yl)amino)ethyl)phenyl)piperidine-3-carboxamide]
7 | 99% | < 300 nM | 1000 to 10000 nM |  | C=CC(=O)Nc1cn(C)nc1C(=O)Nc1cccc(CNc2nc(NC3CCOCC3)nc3c(C(C)C)cnn23)c1 [Compound 85, 4-acrylamido-N-(3-(((8-isopropyl-2-((tetrahydro-2H-pyran-4-yl)amino)pyrazolo[1,5-a][1,3,5]triazin-4-yl)amino)methyl)phenyl)-1-methyl-1H-pyrazole-3-carboxamide]
8 | 93% | < 300 nM | 1000 to 10000 nM |  | C=CC(=O)N1CCC(NC(=O)c2cccc(Nc3nc(OC4CCN(C)CC4)nc4c(C(C)C)cnn34)c2)CC1 [Compound 128, N-(1-acryloylpiperidin-4-yl)-3-((8-isopropyl-2-((1-methylpiperidin-4-yl)oxy)pyrazolo[1,5-a][1,3,5]triazin-4-yl)amino)benzamide]
9 |  | < 300 nM | 1000 to 10000 nM | 91% | C=CC(=O)N1CCC(C(=O)Nc2cccc(CNc3nc(NC4CCOCC4)nc4c(C(C)C)cnn34)c2)C1 (single isomer, unassigned) [Compound 6, 1-acryloyl-N-(3-(((8-isopropyl-2-((tetrahydro-2H-pyran-4-yl)amino)pyrazolo[1,5-a][1,3,5]triazin-4-yl)amino)methyl)phenyl)pyrrolidine-3-carboxamide]
10 | 100% | < 300 nM | ≤ 1000 nM |  | C=CC(=O)N1CC[C@H]1C(=O)Nc1cccc(CNc2nc(NC3CCOCC3)nc3c(C(C)C)cnn23)c1 [Compound 20, (S)-1-acryloyl-N-(3-(((8-isopropyl-2-((tetrahydro-2H-pyran-4-yl)amino)pyrazolo[1,5-a][1,3,5]triazin-4-yl)amino)methyl)phenyl)azetidine-2-carboxamide]

Continued, compound first:

Row | SMILES | inhibition at 10 µM (CDK7/CycH/MNAT1) | IC50 (CDK7/CycH/MNAT1) | EC50 [1] | % inhibition @ 10 μM (CDK7/CycH/MNAT1)
11 | CC(C)c1cnn2c(Nc3cccc(NC(=O)C4CCC(NC(=O)/C=C/CN(C)C)CC4)c3)nc(OC3CCN(C)CC3)nc12 (stereo not drawn) [Compound 131, (1s,4s)-4-((E)-4-(dimethylamino)but-2-enamido)-N-(3-((8-isopropyl-2-((1-methylpiperidin-4-yl)oxy)pyrazolo[1,5-a][1,3,5]triazin-4-yl)amino)phenyl)cyclohexane-1-carboxamide] | 86% | 300 to 1000 nM | > 10000 nM | 
12 | C=CC(=O)N1CCOCC1C(=O)Nc1cccc(CNc2nc(NC3CCOCC3)nc3c(C(C)C)cnn23)c1 (stereo not drawn) [Compound 24, 4-acryloyl-N-(3-(((8-isopropyl-2-((tetrahydro-2H-pyran-4-yl)amino)pyrazolo[1,5-a][1,3,5]triazin-4-yl)amino)methyl)phenyl)morpholine-3-carboxamide] | 98% | < 300 nM | ≤ 1000 nM | 
13 | CC(C)c1cnn2c(Nc3cccc(C(=O)NC4CCN(C(=O)/C=C/CN(C)C)CC4)c3)nc(OC3CCN(C)CC3)nc12 [Compound 134, (E)-N-(1-(4-(dimethylamino)but-2-enoyl)piperidin-4-yl)-3-((8-isopropyl-2-((1-methylpiperidin-4-yl)oxy)pyrazolo[1,5-a][1,3,5]triazin-4-yl)amino)benzamide] | 97% | < 300 nM | 1000 to 10000 nM | 
14 | C=CC(=O)N1CCC(C(=O)Nc2cccc(CNc3nc(NC4CCCC(O)C4)nc4c(C(C)C)cnn34)c2)C1 (single isomer, unassigned) [Compound 13, 1-acryloyl-N-(3-(((2-((3-hydroxycyclohexyl)amino)-8-isopropylpyrazolo[1,5-a][1,3,5]triazin-4-yl)amino)methyl)phenyl)pyrrolidine-3-carboxamide] |  | 300 to 1000 nM | 1000 to 10000 nM | 93%
15 | C=CC(=O)N1CCC(C(=O)Nc2cccc(CNc3nc(NC4CCCC(N)C4)nc4c(C(C)C)cnn34)c2)C1 (stereo not drawn) [Compound 15, 1-acryloyl-N-(3-(((2-((3-aminocyclohexyl)amino)-8-isopropylpyrazolo[1,5-a][1,3,5]triazin-4-yl)amino)methyl)phenyl)pyrrolidine-3-carboxamide] | 98% | < 300 nM | > 10000 nM | 
16 | C=CC(=O)N1CCCC(C(=O)Nc2cccc(CNc3nc(OC4CCOCC4)nc4c(C(C)C)cnn34)c2)C1 (stereo not drawn) [Compound 96, 1-acryloyl-N-(3-(((8-isopropyl-2-((tetrahydro-2H-pyran-4-yl)oxy)pyrazolo[1,5-a][1,3,5]triazin-4-yl)amino)methyl)phenyl)piperidine-3-carboxamide] | 87% | 300 to 1000 nM | 1000 to 10000 nM | 
17 | C=CC(=O)N1CCCC(C(=O)Nc2cc(CNc3nc(OC4CCN(C)CC4)nc4c(C(C)C)cnn34)ccc2F)C1 (stereo not drawn) [Compound 117, 1-acryloyl-N-(2-fluoro-5-(((8-isopropyl-2-((1-methylpiperidin-4-yl)oxy)pyrazolo[1,5-a][1,3,5]triazin-4-yl)amino)methyl)phenyl)piperidine-3-carboxamide] | 95% | < 300 nM | 1000 to 10000 nM | 
18 | C=CS(=O)(=O)N1CCCCC1C(=O)Nc1cccc(CNc2nc(NC3CCOCC3)nc3c(C(C)C)cnn23)c1 (stereo not drawn) [Compound 78, N-(3-(((8-isopropyl-2-((tetrahydro-2H-pyran-4-yl)amino)pyrazolo [1,5-a][1,3,5]triazin-4-yl)amino)methyl)phenyl)-1-(vinylsulfonyl)piperidine-2-carboxamide] | 100% | < 300 nM | ≤ 1000 nM | 
19 | C=CC(=O)N1CCCC(C(=O)Nc2cccc(CNc3nc(NC4CCN(C)CC4)nc4c(C(C)C)cnn34)c2)C1 (stereo not drawn) [Compound 8, 1-acryloyl-N-(3-(((8-isopropyl-2-((1-methylpiperidin-4-yl)amino)pyrazolo[1,5-a][1,3,5]triazin-4-yl)amino)methyl)phenyl)piperidine-3-carboxamide] | 96% | < 300 nM | ≤ 1000 nM | 
